Legend:
Assay in all cases: radiometric filter-binding kinase assay, Kinase HotSpot
Details in all cases: compound 0.5 µM; ATP 10 µM
SRPK2 (human) = SRPK2 (human) (UniProt P78362)
SRPK1 (human) = SRPK1 (human) (UniProt Q96SB4)
ERBB2 (human) = ERBB2 (human) (UniProt P04626)
NEK7 (human) = NEK7 (human) (UniProt Q8TDX7)
CAMK1G (human) = CAMK1G (human) (UniProt Q96NX5)
CHUK (human) = CHUK (human) (UniProt O15111)
MYLK (human) = MYLK (human) (UniProt Q15746)
CAMK1 (human) = CAMK1 (human) (UniProt Q14012)
PTK2B (human) = PTK2B (human) (UniProt Q14289)
CSF1R (human) = CSF1R (human) (UniProt P07333)
MST4 (human) = MST4 (human) (UniProt Q9P289)
PTK2 (human) = PTK2 (human) (UniProt Q05397)
STK33 (human) = STK33 (human) (UniProt Q9BYT3)
FER (human) = FER (human) (UniProt P16591)
Sequence of FER (human) (P16591 whole entry, looked up): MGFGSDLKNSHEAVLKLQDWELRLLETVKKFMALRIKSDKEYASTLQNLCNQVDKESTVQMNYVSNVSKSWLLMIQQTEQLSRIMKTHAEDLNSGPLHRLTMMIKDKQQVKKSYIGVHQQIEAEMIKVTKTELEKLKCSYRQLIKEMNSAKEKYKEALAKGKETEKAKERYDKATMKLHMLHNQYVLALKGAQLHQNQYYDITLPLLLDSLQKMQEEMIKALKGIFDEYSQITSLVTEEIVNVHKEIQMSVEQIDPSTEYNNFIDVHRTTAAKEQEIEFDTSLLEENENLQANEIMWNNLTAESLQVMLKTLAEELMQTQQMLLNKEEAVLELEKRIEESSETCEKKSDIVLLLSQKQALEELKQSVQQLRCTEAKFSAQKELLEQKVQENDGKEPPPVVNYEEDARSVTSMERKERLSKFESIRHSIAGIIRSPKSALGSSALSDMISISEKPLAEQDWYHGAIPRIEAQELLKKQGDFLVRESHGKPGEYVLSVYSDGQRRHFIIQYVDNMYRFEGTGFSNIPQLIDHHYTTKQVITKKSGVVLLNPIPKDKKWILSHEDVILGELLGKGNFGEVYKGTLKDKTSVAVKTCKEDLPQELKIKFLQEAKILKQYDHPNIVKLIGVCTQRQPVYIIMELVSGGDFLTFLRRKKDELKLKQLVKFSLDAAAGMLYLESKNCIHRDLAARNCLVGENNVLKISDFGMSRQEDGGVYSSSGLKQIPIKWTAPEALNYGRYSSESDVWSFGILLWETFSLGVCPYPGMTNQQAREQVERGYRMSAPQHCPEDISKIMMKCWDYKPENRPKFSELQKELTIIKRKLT

IRAK1 (human) = IRAK1 (human) (UniProt P51617)
Sequence of IRAK1 (human) (P51617 whole entry, looked up): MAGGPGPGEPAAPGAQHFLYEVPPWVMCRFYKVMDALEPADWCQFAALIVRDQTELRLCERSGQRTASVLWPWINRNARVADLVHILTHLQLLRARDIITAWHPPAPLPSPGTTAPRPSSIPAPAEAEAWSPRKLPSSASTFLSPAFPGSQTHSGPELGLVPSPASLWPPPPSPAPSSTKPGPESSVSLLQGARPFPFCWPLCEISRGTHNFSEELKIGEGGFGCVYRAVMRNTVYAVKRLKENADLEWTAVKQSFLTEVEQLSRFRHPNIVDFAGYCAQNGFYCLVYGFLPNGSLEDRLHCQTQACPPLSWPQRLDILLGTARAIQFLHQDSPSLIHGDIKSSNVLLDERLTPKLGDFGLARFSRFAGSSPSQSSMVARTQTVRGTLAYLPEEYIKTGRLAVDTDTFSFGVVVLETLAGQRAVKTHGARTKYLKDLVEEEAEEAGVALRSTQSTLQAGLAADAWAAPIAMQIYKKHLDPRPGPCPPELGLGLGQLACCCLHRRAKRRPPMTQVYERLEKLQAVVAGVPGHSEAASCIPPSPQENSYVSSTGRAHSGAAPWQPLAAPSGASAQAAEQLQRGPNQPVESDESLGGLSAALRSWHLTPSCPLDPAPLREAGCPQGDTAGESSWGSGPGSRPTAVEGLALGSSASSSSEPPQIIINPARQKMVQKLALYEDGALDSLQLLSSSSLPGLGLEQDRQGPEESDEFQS

AKT3 (human) = AKT3 (human) (UniProt Q9Y243)
EPHA2 (human) = EPHA2 (human) (UniProt P29317)
Sequence of EPHA2 (human) (P29317 whole entry, looked up): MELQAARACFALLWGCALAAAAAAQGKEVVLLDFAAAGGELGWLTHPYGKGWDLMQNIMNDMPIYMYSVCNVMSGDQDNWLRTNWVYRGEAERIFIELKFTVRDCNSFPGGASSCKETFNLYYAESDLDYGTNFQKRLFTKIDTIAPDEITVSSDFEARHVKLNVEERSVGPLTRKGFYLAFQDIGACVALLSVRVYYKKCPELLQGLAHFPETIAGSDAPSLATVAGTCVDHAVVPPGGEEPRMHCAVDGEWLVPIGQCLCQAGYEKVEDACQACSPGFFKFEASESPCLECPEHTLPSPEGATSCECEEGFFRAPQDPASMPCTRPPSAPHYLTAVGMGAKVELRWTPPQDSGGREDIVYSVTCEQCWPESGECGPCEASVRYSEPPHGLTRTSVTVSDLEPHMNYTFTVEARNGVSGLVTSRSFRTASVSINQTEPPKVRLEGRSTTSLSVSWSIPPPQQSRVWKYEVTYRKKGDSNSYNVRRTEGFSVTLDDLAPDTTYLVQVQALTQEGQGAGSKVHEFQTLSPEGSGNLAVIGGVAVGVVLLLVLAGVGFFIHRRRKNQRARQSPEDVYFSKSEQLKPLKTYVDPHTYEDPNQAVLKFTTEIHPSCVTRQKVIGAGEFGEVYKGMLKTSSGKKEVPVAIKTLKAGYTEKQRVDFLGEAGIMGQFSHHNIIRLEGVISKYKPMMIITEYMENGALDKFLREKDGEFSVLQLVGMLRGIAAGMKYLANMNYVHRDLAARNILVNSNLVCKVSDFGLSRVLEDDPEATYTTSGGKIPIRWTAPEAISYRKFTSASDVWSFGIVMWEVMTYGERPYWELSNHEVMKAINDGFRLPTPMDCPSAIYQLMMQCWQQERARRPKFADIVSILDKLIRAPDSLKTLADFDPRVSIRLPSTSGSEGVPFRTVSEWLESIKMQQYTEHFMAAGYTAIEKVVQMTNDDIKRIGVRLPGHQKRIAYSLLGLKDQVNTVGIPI

TAOK3 (human) = TAOK3 (human) (UniProt Q9H2K8)
PAK7 (human) = PAK7 (human) (UniProt Q9P286)
DYRK2 (human) = DYRK2 (human) (UniProt Q92630)
DAPK3 (human) = DAPK3 (human) (UniProt O43293)
MAPK8 (human) = MAPK8 (human) (UniProt P45983)
MAPK12 (human) = MAPK12 (human) (UniProt P53778)
STK24 (human) = STK24 (human) (UniProt Q9Y6E0)
PIM2 (human) = PIM2 (human) (UniProt Q9P1W9)
MINK1 (human) = MINK1 (human) (UniProt Q8N4C8)
[1] = molecular target: JAK1 JH1 catalytic (human) (UniProt P23458)
Sequence of JAK1 JH1 catalytic (human) (P23458 whole entry, looked up): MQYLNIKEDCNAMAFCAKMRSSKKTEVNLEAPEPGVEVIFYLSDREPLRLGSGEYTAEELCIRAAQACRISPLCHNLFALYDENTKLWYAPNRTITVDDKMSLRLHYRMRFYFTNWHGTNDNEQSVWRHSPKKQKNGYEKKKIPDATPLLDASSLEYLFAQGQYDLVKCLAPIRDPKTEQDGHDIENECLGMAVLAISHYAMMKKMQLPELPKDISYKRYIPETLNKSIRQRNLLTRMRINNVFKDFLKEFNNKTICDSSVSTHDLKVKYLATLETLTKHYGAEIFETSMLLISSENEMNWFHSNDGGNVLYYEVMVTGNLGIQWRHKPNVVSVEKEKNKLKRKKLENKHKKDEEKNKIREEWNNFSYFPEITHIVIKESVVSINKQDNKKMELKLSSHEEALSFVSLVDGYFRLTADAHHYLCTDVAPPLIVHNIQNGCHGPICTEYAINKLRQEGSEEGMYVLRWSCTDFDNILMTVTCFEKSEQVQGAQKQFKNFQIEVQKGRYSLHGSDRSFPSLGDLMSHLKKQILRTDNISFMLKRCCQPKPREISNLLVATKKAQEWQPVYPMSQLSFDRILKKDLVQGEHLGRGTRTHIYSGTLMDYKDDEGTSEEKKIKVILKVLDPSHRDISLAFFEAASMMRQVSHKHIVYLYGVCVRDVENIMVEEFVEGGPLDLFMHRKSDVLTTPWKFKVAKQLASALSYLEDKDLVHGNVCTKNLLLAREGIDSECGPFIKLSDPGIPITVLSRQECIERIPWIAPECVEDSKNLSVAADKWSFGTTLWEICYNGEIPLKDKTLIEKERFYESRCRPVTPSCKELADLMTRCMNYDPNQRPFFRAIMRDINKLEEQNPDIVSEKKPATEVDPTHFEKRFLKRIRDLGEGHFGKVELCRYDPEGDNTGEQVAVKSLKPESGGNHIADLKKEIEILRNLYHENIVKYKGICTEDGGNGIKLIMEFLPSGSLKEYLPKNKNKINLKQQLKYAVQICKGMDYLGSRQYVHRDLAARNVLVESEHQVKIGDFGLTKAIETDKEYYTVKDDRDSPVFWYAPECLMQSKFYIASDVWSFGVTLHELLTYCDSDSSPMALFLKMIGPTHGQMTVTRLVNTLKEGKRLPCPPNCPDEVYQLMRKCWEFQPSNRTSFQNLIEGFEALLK

ADRBK2 (human) = ADRBK2 (human) (UniProt P35626)
NEK3 (human) = NEK3 (human) (UniProt P51956)
BLK (human) = BLK (human) (UniProt P51451)
CDK6 CCND1 (human) = CDK6 CCND1 (human) (UniProt Q00534+P24385)
IRAK4 (human) = IRAK4 (human) (UniProt Q9NWZ3)
Sequence of IRAK4 (human) (Q9NWZ3 whole entry, looked up): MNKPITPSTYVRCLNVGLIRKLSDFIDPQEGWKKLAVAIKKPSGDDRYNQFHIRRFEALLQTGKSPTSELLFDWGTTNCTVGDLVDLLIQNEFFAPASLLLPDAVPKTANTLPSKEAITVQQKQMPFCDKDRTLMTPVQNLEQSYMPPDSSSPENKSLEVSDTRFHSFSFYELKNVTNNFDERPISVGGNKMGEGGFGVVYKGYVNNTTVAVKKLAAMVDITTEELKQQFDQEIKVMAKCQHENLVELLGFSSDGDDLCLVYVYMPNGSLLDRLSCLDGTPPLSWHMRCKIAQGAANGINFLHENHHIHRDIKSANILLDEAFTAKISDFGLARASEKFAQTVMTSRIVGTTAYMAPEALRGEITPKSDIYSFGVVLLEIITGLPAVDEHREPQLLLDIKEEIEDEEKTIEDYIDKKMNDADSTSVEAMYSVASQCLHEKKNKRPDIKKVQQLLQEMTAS

MAPK14 (human) = MAPK14 (human) (UniProt Q16539)
CDK9 CCNK (human) = CDK9 CCNK (human) (UniProt O75909+P50750)
FGFR1 (human) = FGFR1 (human) (UniProt P11362)
Sequence of FGFR1 (human) (P11362 whole entry, looked up): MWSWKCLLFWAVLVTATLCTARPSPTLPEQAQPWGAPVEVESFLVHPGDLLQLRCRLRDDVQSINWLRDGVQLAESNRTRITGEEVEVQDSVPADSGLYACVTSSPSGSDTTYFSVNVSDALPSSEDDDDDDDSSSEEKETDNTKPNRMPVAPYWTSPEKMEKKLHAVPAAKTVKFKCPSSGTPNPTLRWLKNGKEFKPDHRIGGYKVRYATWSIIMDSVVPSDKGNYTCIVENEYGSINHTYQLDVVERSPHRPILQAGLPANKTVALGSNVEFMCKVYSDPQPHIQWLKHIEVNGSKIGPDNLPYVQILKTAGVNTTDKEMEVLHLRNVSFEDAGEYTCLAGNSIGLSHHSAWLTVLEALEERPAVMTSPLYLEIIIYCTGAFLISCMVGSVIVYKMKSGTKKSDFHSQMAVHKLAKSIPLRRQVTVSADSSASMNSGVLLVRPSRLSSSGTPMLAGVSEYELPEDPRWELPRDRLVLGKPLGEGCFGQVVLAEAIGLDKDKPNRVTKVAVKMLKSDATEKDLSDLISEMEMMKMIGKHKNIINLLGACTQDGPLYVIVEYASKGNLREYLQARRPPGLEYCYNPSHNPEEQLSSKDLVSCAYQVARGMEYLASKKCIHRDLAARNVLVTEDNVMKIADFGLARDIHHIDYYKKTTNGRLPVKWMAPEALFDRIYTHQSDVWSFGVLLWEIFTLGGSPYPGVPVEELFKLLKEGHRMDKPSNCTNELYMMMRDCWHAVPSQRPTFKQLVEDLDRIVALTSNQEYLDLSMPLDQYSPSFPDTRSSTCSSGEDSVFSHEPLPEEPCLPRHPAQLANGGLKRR

FGR (human) = FGR (human) (UniProt P09769)
NLK (human) = NLK (human) (UniProt Q9UBE8)
ADRBK1 (human) = ADRBK1 (human) (UniProt P25098)
DYRK4 (human) = DYRK4 (human) (UniProt Q9NR20)
CDK7 CCNH MNAT1 (human) = CDK7 CCNH MNAT1 (human) (UniProt P50613+P51948+P51946)
DYRK1A (human) = DYRK1A (human) (UniProt Q13627)
DSTYK (human) = DSTYK (human) (UniProt Q6XUX3)

For `O=C1Nc2ccc(Cl)cc2/C1=C/c1cc(Cl)c(O)c(Cl)c1`, the residual activity (SRPK2 (human)) was 95.2%, the residual activity (SRPK1 (human)) was 106% and the residual activity (ERBB2 (human)) was 107%. The residual activity (NEK7 (human)) was 100%, the residual activity (CAMK1G (human)) was 96.6% and the residual activity (CHUK (human)) was 97%. It also gave a residual activity (MYLK (human)) of 62.3%, a residual activity (CAMK1 (human)) of 94.9% and a residual activity (PTK2B (human)) of 96.7%. The residual activity (CSF1R (human)) was 77.9%, the residual activity (MST4 (human)) was 101% and the residual activity (PTK2 (human)) was 91.5%. It also gave a residual activity (STK33 (human)) of 85.1%, a residual activity (FER (human)) of 92.1% and a residual activity (IRAK1 (human)) of 95.4%. The residual activity (AKT3 (human)) was 96.9%, the residual activity (EPHA2 (human)) was 95% and the residual activity (TAOK3 (human)) was 50.6%. For the same compound, the residual activity (PAK7 (human)) was 91.5%, the residual activity (DYRK2 (human)) was 94% and the residual activity (DAPK3 (human)) was 82.3%. For the same compound, the residual activity (MAPK8 (human)) was 82.8%, the residual activity (MAPK12 (human)) was 90.5% and the residual activity (STK24 (human)) was 104%. The residual activity (PIM2 (human)) was 48.6%, the residual activity (MINK1 (human)) was 22.4% and the residual activity [1] was 103%. It also gave a residual activity (ADRBK2 (human)) of 102%, a residual activity (NEK3 (human)) of 94% and a residual activity (BLK (human)) of 102%. For the same compound, the residual activity (CDK6 CCND1 (human)) was 97%, the residual activity (IRAK4 (human)) was 101% and the residual activity (MAPK14 (human)) was 74.6%. The residual activity (CDK9 CCNK (human)) was 79.4%, the residual activity (FGFR1 (human)) was 90.8% and the residual activity (FGR (human)) was 84.8%. It also gave a residual activity (NLK (human)) of 38.9%, a residual activity (ADRBK1 (human)) of 93.4% and a residual activity (DYRK4 (human)) of 95.7%. For the same compound, the residual activity (CDK7 CCNH MNAT1 (human)) was 96.7%, the residual activity (DYRK1A (human)) was 95.6% and the residual activity (DSTYK (human)) was 89.6%.

For `CC[n+]1c(/C=C/N(C)c2ccccc2)n(-c2ccccc2)c2ccc(-c3nc4ccccc4s3)cc21`, the residual activity (SRPK2 (human)) was 105%, the residual activity (SRPK1 (human)) was 105% and the residual activity (ERBB2 (human)) was 92%. The residual activity (NEK7 (human)) was 95.4%, the residual activity (CAMK1G (human)) was 101% and the residual activity (CHUK (human)) was 86%. For the same compound, the residual activity (MYLK (human)) was 98.4%, the residual activity (CAMK1 (human)) was 94.4% and the residual activity (PTK2B (human)) was 103%. It also gave a residual activity (CSF1R (human)) of 108%, a residual activity (MST4 (human)) of 93.7% and a residual activity (PTK2 (human)) of 108%. The residual activity (STK33 (human)) was 89.4%, the residual activity (FER (human)) was 98.9% and the residual activity (IRAK1 (human)) was 102%. The residual activity (AKT3 (human)) was 109%, the residual activity (EPHA2 (human)) was 100% and the residual activity (TAOK3 (human)) was 116%. The residual activity (PAK7 (human)) was 98.6%, the residual activity (DYRK2 (human)) was 105% and the residual activity (DAPK3 (human)) was 95.4%. The residual activity (MAPK8 (human)) was 96.3%, the residual activity (MAPK12 (human)) was 105% and the residual activity (STK24 (human)) was 99.2%. For the same compound, the residual activity (PIM2 (human)) was 117%, the residual activity (MINK1 (human)) was 99% and the residual activity [1] was 104%. The residual activity (ADRBK2 (human)) was 97.4%, the residual activity (NEK3 (human)) was 102% and the residual activity (BLK (human)) was 99.1%. For the same compound, the residual activity (CDK6 CCND1 (human)) was 103%, the residual activity (IRAK4 (human)) was 173% and the residual activity (MAPK14 (human)) was 94.9%. The residual activity (CDK9 CCNK (human)) was 106%, the residual activity (FGFR1 (human)) was 97.4% and the residual activity (FGR (human)) was 94.1%. For the same compound, the residual activity (NLK (human)) was 105%, the residual activity (ADRBK1 (human)) was 87.5% and the residual activity (DYRK4 (human)) was 107%. It also gave a residual activity (CDK7 CCNH MNAT1 (human)) of 97.8%, a residual activity (DYRK1A (human)) of 96.7% and a residual activity (DSTYK (human)) of 103%.
